{"source": "patent EP0157762B1", "about": "“NEW SUBSTITUTED PIPERIDINOGUANIDINES, PREPARATION PROCESS AND PHARMACEUTICAL COMPOSITIONS CONTAINING THEM” (BOUCHARA S.A., priority 1983, dated 1985)", "assay": "Solubility (qualitative)", "assay_type": "physicochemical"}
{"smiles": "CNC(=NC(N)=O)NCC1CCN(CCCC(=O)c2ccc(F)cc2)CC1", "note": "[Exemple I]", "values": [{"measurement": "solubilité dans les solvants organiques", "setting": "organic solvents", "result": "peu soluble dans les solvants organiques"}, {"measurement": "solubilité dans l'eau", "setting": "water", "result": "soluble dans l'eau"}]}
